Our source for the IC50, EC50 and fold induction values is US20060276464A1, “Diarylsulfone sulfonamides and use thereof” (Wyeth, priority 2005, published 2006).

The target in experiment [1] is T1, SFRP-1 (Homo sapiens, UniProt Q8N474).
T1 sequence (Q8N474 32-314): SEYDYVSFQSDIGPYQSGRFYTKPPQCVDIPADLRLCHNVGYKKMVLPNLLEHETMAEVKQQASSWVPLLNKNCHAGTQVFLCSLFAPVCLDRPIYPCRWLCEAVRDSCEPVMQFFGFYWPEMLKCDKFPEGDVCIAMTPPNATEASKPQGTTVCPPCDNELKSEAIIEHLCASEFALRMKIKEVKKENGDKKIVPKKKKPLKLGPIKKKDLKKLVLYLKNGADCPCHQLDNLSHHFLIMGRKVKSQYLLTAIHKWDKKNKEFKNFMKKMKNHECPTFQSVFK
As to the kind of experiment: Fluorescence polarization binding assay (competitive displacement of a probe compound from SFRP-1).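 Further: test compound competes with a fluorescent probe held by SFRP-1, seen as a drop in probe anisotropy after incubation in darkness, with anisotropy as function of rising compound dose.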 The following applies: fluorescence anisotropy, 45 nM SFRP-1, 20 nM probe. (Fluorescence polarisation rises when a labelled molecule tumbles more slowly, as on binding a larger partner.)

In experiment [2] the target is T1, SFRP-1. The experiment is described as follows: Cell-based assay for in vitro measurement of SFRP-1/SARP2 antagonist activity (U2OS cells co-transfected with 16x TCF-tk-Luciferase reporter, Wnt and hSFRP-1).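 On all read-outs here: U2OS cells co-transfected with a TCF-tk luciferase reporter, a Wnt vector, hSFRP-1 or empty vector and CMV-βgal, luciferase luminescence read in cell lysates alongside βgal activity.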 As to conditions: for fold induction at 10 µM: U2OS, read-out: Fold Induction with SFRP-1, U2OS cells, single dose 10 μM, luciferase reporter, fold induction over SFRP-1 control.

Turning to `C[C@@H](CO)NS(=O)(=O)c1cc(S(=O)(=O)c2ccccc2)ccc1C(F)(F)F` [Example 725, N-[(1S)-2-hydroxy-1-methylethyl]-5-(phenylsulfonyl)-2-(trifluoromethyl)benzenesulfonamide], on SFRP-1 [1], the 50% inhibitory concentration (IC50) – broadly, the concentration that inhibits the measured activity by half – turned out to be 500 nM. Also, at SFRP-1 [2], the 50% effective concentration (EC50) (as a rule, the midpoint of the concentration-response curve) is 1260 nM and the fold induction at 10 µM is 3.1.

For the molecule `C[C@H](CO)NS(=O)(=O)c1cc(S(=O)(=O)c2ccccc2)ccc1C(F)(F)F` [Example 726, N-[(1R)-2-hydroxy-1-methylethyl]-5-(phenylsulfonyl)-2-(trifluoromethyl)benzenesulfonamide], the 50% inhibitory concentration (IC50) at SFRP-1 [1] was 800 nM. Further, the fold induction at 10 µM on SFRP-1 [2] came out at 3.

`CC(C)c1ccc(S(=O)(=O)c2ccc(F)cc2)cc1S(=O)(=O)NCC(O)c1ccccn1` (stereo not drawn) [Example 727, 5-[(4-fluorophenyl)sulfonyl]-N-(2-hydroxy-2-pyridin-2-ylethyl)-2-isopropylbenzenesulfonamide]: on SFRP-1 [1], the IC50 came to 10000 nM. Moreover, the fold induction at 10 µM on SFRP-1 [2] is 3.2.

As to `CC(C)c1ccc(S(=O)(=O)c2ccccc2)cc1S(=O)(=O)NCC(O)c1ccccn1` (stereo not drawn) [Example 728, N-(2-hydroxy-2-pyridin-2-ylethyl)-2-isopropyl-5-(phenylsulfonyl)benzene-sulfonamide], the IC50 at SFRP-1 [1] was 4000 nM. The fold induction at 10 µM at SFRP-1 [2] came out at 3.1.

For the molecule `Cc1cc(C)c(S(=O)(=O)c2ccccc2)cc1S(=O)(=O)NCC(O)c1ccccn1` (stereo not drawn) [Example 729, N-(2-hydroxy-2-pyridin-2-ylethyl)-2,4-dimethyl-5-(phenylsulfonyl)benzenesulfonamide], on SFRP-1 [1], the half-inhibitory concentration (IC50) turned out to be 15000 nM. For the same molecule, on SFRP-1 [2], the fold induction at 10 µM was 1.7.

In the case of `CC(C)c1ccc(S(=O)(=O)c2ccc(F)cc2)cc1S(=O)(=O)NCC(O)c1cccnc1` (stereo not drawn) [Example 731, 5-[(4-fluorophenyl)sulfonyl]-N-(2-hydroxy-2-pyridin-3-ylethyl)-2-isopropylbenzenesulfonamide], the IC50 on SFRP-1 [1] was determined as 1900 nM. Further, the fold induction at 10 µM on SFRP-1 [2] came to 3.3.

On to `CC(C)c1ccc(S(=O)(=O)c2ccc(F)cc2)cc1S(=O)(=O)NCC(O)c1ccccc1` (stereo not drawn) [Example 732, 5-[(4-fluorophenyl)sulfonyl]-N-(2-hydroxy-2-phenylethyl)-2-isopropylbenzenesulfonamide], for which, on SFRP-1 [1], the concentration for half-maximal inhibition (IC50) came to 1100 nM. Also, at SFRP-1 [2], the fold induction at 10 µM turned out to be 4.2.

Regarding `CC(CO)NS(=O)(=O)c1cc(S(=O)(=O)c2ccc(F)cc2)ccc1C(C)C` (stereo not drawn) [Example 733, 5-[(4-fluorophenyl)sulfonyl]-N-(2-hydroxy-1-methylethyl)-2-isopropylbenzenesulfonamide], the IC50 at SFRP-1 [1] amounted to 10000 nM. Besides, the fold induction at 10 µM on SFRP-1 [2] stood at 2.5.

Regarding `CC(C)c1ccc(S(=O)(=O)c2ccccc2)cc1S(=O)(=O)NCC(O)c1cccnc1` (stereo not drawn) [Example 735, N-(2-hydroxy-2-pyridin-3-ylethyl)-2-isopropyl-5-(phenylsulfonyl)benzenesulfonamide], the half-maximal inhibitory concentration (IC50) at SFRP-1 [1] was 900 nM. For the same molecule, the fold induction at 10 µM on SFRP-1 [2] is 4.1.

Molecule `CC(C)c1ccc(S(=O)(=O)c2ccccc2)cc1S(=O)(=O)NCC(O)c1ccccc1` (stereo not drawn) [Example 736, N-(2-hydroxy-2-phenylethyl)-2-isopropyl-5-(phenylsulfonyl)benzenesulfonamide] had an IC50 on SFRP-1 [1] of 400 nM. Besides, at SFRP-1 [2], the EC50 amounted to 1760 nM and the fold induction at 10 µM was determined as 5.

`CCC(O)CNS(=O)(=O)c1cc(S(=O)(=O)c2ccc(F)cc2)ccc1C(C)C` (stereo not drawn) [Example 738, 5-[(4-fluorophenyl)sulfonyl]-N-(2-hydroxybutyl)-2-isopropylbenzenesulfonamide] returned an IC50 on SFRP-1 [1] of 7000 nM. Also, on SFRP-1 [2], the fold induction at 10 µM was 2.9.

As to `O=S(=O)(NCCn1ccnc1)c1cc(S(=O)(=O)c2ccccc2)ccc1C(F)(F)F` [Example 739, N-[2-(1H-Imidazol-1-yl)ethyl]-5-(phenylsulfonyl)-2-(trifluoromethyl)benzenesulfonamide], the IC50 on SFRP-1 [1] worked out at 180 nM. At SFRP-1 [2], the EC50 is 720 nM and the fold induction at 10 µM was 5.1.
